In this assay the target is T1, human vasopressin V1b receptor (Homo sapiens, UniProt P47901).
T1 construct: expressed in transfected cells; host or cells: CHO-K1 (cell line hV1b_3H2_CHO), membrane preparation
T1 sequence (P47901 1-424): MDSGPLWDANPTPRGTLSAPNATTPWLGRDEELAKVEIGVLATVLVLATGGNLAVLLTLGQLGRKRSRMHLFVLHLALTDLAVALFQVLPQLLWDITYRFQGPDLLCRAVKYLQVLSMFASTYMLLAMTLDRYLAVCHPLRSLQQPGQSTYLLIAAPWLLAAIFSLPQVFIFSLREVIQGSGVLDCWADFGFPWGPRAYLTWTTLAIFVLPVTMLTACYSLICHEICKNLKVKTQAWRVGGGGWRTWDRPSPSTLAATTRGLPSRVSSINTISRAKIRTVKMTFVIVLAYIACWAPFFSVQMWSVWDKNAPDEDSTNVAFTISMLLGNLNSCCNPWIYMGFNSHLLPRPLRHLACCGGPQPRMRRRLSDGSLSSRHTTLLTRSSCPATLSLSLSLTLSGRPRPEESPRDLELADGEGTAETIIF
In words: Vasopressin V1b receptor binding test. The note with it: membranes of CHO-K1 cells, displacement of 1.5 nM 3H-AVP. The method, then: • Vasopressin V1b Receptor Binding Test: • Substances:
The test substances were dissolved at a concentration of 10^−2 M in DMSO and diluted further in DMSO to 5×10^−4 M to 5×10^−9 M. These DMSO solutions were diluted 1:10 with test buffer. The concentration of substance was again diluted 1:5 in the test preparation.
The membrane pellet was homogenized and centrifuged again as described, and then taken up in 50 mM Tris-HCl, pH 7.4, homogenized and, frozen in aliquots, stored at −190° C. in liquid nitrogen.
The incubation buffer was: 50 mM Tris, 10 mM MgCl2, 0.1% BSA, pH 7.4. […] The nonspecific binding was determined with 1 μM AVP (Bachem #H1780). All determinations were performed in triplicate. After incubation (60 minutes at room temperature), the free radioligand was filtered off by vacuum filtration (Skatron cell harvester 7000) on Whatman GF/B glass-fibre filter mats and the filters were transferred to scintillation vessels. Liquid scintillation measurement was performed in a Tricarb instrument, Model 2000 or 2200CA (Packard). Conversion of the measured cpm to dpm was performed with the aid of a standard quench series.
The binding parameters were calculated by nonlinear regression in SAS.
For the compounds according to the invention, the affinities for the human vasopressin receptor V1b were measured according to the above test and the affinity constant (Ki) was determined.

Structures can show the parent of a compound that is named as a salt.

With `COc1ccccc1C1(N2CCN(c3ccncc3)CC2)C(=O)N(S(=O)(=O)c2ccccc2OC)c2ccc(Cl)cc21` (stereo not shown) [Example 5, 5-Chloro-1-(2-methoxy-benzenesulphonyl)-3-(2-methoxyphenyl)-3-(4-pyridin-4-yl-piperazin-1-yl)-1,3-dihydro-indol-2-one], the Ki is below 50 nM. To `COc1ccc(S(=O)(=O)N2C(=O)C(c3ccccc3OC)(N3CCN(c4ccncc4)CC3)c3ccc(C)cc32)c(OC)c1` (stereo not shown) [Example 23, 1-(2,4-Dimethoxy-benzenesulphonyl)-3-(2-methoxyphenyl)-6-methyl-3-(4-pyridin-4-yl-piperazin-1-yl)-1,3-dihydro-indol-2-one] belongs 50 to 500 nM; to `CCOc1ccc(OC)cc1C1(N2CCN(c3ccnc(CC)c3)CC2)C(=O)N(S(=O)(=O)c2ccc(OC)cc2OC)c2ccc(C#N)cc21` (racemic) [Example 94, (±)-5-Cyano-1-(2,4-dimethoxy-benzenesulphonyl)-3-(2-ethoxy-5-methoxyphenyl)-3-[4-(2-ethyl-pyridin-4-yl)-piperazin-1-yl]-2,3-dihydro-1H-indol-2-one], below 50 nM. To `CCOc1ccc(CC)cc1C1(N2CCN(c3ccnc(C)c3)CC2)C(=O)N(S(=O)(=O)c2ccc(OC)cc2OC)c2ccc(C#N)cc21` (racemic) [Example 107, (±)-5-Cyano-1-(2,4-dimethoxy-benzenesulphonyl)-3-(2-ethoxy-5-ethyl-phenyl)-3-[4-(2-methyl-pyridin-4-yl)-piperazin-1-yl]-2,3-dihydro-1H-indol-2-one] belongs below 50 nM. With `CCOc1ccccc1C1(N2CCN(c3ccncc3)CC2)C(=O)N(S(=O)(=O)c2ccc(C(C)C)cc2)c2ccc(C#N)cc21` (racemic) [Example 81, (±)-5-Cyano-3-(2-ethoxyphenyl)-1-(4-isopropyl-benzenesulphonyl)-3-(4-pyridin-4-yl-piperazin-1-yl)-2,3-dihydro-1H-indol-2-one] the figure was 50 to 500 nM; with `CCOc1ccc(S(=O)(=O)N2C(=O)C(c3ccccc3OCC)(N3CCN(c4ccncc4)CC3)c3cc(C#N)ccc32)c(OC)c1` (racemic) [Example 77, (±)-5-Cyano-1-(4-ethoxy-2-methoxy-benzenesulphonyl)-3-(2-ethoxyphenyl)-3-(4-pyridin-4-yl-piperazin-1-yl)-2,3-dihydro-1H-indol-2-one hydrochloride], 50 to 500 nM. `COCc1ccccc1C1(N2CCN(c3ccncc3)CC2)C(=O)N(S(=O)(=O)c2ccc(OC)cc2OC)c2ccc(Cl)cc21` (stereo not shown) [Example 32, 5-Chloro-1-(2,4-dimethoxy-benzenesulphonyl)-3-(2-methoxymethylphenyl)-3-(4-pyridin-4-yl-piperazin-1-yl)-1,3-dihydro-indol-2-one]: the Ki fell in the range of 50 to 500 nM. `CCOc1ccc(OC)cc1C1(N2CCCN(c3ccncc3)CC2)C(=O)N(S(=O)(=O)c2ccc(OC)cc2OC)c2ccc(C#N)cc21` (stereo not shown) [Example 60, 5-Cyano-1-(2,4-dimethoxy-benzenesulphonyl)-3-(2-ethoxy-5-methoxyphenyl)-3-(4-pyridin-4-yl-[1.4]diazepan-1-yl)-2,3-dihydro-1H-indol-2-one] gave a Ki below 50 nM. For `CCOc1ccccc1C1(N2CCN(c3ccncc3)CC2)C(=O)N(S(=O)(=O)c2ccc(F)cc2)c2ccc(C#N)cc21` (stereo not shown) [Example 15, 5-Cyano-3-(2-ethoxyphenyl)-1-(4-fluoro-benzenesulphonyl)-3-(4-pyridin-4-yl-piperazin-1-yl)-2,3-dihydro-1H-indol-2-one], the Ki fell in the range of 50 to 500 nM. Take `CCOc1ccccc1C1(N2CCN(c3ccncc3)CC2)C(=O)N(S(=O)(=O)c2ccc(C)cc2F)c2ccc(C#N)cc21` (stereo not shown) [Example 115, 5-Cyano-3-(2-ethoxyphenyl)-1-(2-fluoro-4-methylbenzenesulphonyl)-3-(4-pyridin-4-yl-piperazin-1-yl)-2,3-dihydro-1H-indol-2-one]: the inhibition constant (Ki) fell in the range of 50 to 500 nM. The molecule `CCOc1ccccc1C1(N2CCN(c3ccncc3)CC2)C(=O)N(S(=O)(=O)c2ccc(S(C)(=O)=O)cc2)c2ccc(C#N)cc21` (racemic) [Example 86, (±)-5-Cyano-3-(2-ethoxyphenyl)-1-(4-methanesulphonyl-benzenesulphonyl)-3-(4-pyridin-4-yl-piperazin-1-yl)-2,3-dihydro-1H-indol-2-one] registered an inhibition constant Ki of 50 to 500 nM. The molecule `CCOc1ccc(OC)cc1C1(N2CCN(c3ccncc3)CC2)C(=O)N(S(=O)(=O)c2ccc(OC)cc2OC)c2ccc(C#N)cc21` (single isomer, unassigned; (+)) [Example 96, (+)-5-Cyano-1-(2,4-dimethoxy-benzenesulphonyl)-3-(2-ethoxy-5-methoxyphenyl)-3-(4-pyridin-4-yl-piperazin-1-yl)-2,3-dihydro-1H-indol-2-one] displayed a Ki below 50 nM.

In the case of `COc1ccc(S(=O)(=O)N2C(=O)C(c3ccccc3OC)(N3CCN(c4ccncc4)CC3)c3cc(C#N)ccc32)c(OC)c1` (stereo not shown) [Example 26, 5-Cyano-1-(2,4-dimethoxy-benzenesulphonyl)-3-(2-methoxyphenyl)-3-(4-pyridin-4-yl-piperazin-1-yl)-2,3-dihydro-1H-indol-2-one], the Ki lay in the range of 50 to 500 nM. `CCOc1ccccc1C1(N2CCN(c3ccncc3)CC2)C(=O)N(S(=O)(=O)c2ccc(N)cc2)c2ccc(C#N)cc21` (racemic) [Example 84, (±)-5-Cyano-1-(4-amino-benzenesulphonyl)-3-(2-ethoxyphenyl)-3-(4-pyridin-4-yl-piperazin-1-yl)-2,3-dihydro-1H-indol-2-one] had a Ki of 50 to 500 nM. With `COc1ccc(S(=O)(=O)N2C(=O)C(c3cc(OC)ccc3OC)(N3CCN(c4ccncc4)CC3)c3cc(OC)ccc32)c(OC)c1` (stereo not shown) [Example 28, 1-(2,4-Dimethoxy-benzenesulphonyl)-3-(2,5-dimethoxyphenyl)-5-methoxy-3-(4-pyridin-4-yl-piperazin-1-yl)-1,3-dihydro-indol-2-one] the figure was below 50 nM.

`CCOc1ccc(OC)cc1C1(N2CCN(c3ccncc3)CC2)C(=O)N(S(=O)(=O)c2ccc(OC)cc2)c2ccc(C#N)cc21` (stereo not shown) [Example 62, 5-Cyano-3-(2-ethoxy-5-methoxyphenyl)-1-(4-methoxy-benzenesulphonyl)-3-(4-pyridin-4-yl-piperazin-1-yl)-2,3-dihydro-1H-indol-2-one] came in with a Ki below 50 nM. The molecule `CCOc1ccccc1C1(N2CCN(c3ccncc3)CC2)C(=O)N(S(=O)(=O)c2ccc(C(C)(C)C)cc2)c2ccc(C#N)cc21` (racemic) [Example 80, (±)-5-Cyano-1-(4-tert-butyl-benzenesulphonyl)-3-(2-ethoxyphenyl)-3-(4-pyridin-4-yl-piperazin-1-yl)-2,3-dihydro-1H-indol-2-one] came in with an inhibition constant Ki of 50 to 500 nM. Consider `CCOc1ccccc1C1(N2CCN(c3ccncc3)CC2)C(=O)N(S(=O)(=O)c2ccc(C)cc2)c2ccc(C#N)cc21` (racemic) [Example 85, (±)-5-Cyano-3-(2-ethoxyphenyl)-3-(4-pyridin-4-yl-piperazin-1-yl)-1-(toluene-4-sulphonyl)-2,3-dihydro-1H-indol-2-one], for which the Ki is 50 to 500 nM. With `CCOc1ccccc1C1(N2CCN(c3ccncc3)CC2)C(=O)N(S(=O)(=O)c2ccc(C#N)cc2)c2ccc(C#N)cc21` (stereo not shown) [Example 7, 5-Cyano-1-(4-cyano-benzenesulphonyl)-3-(2-ethoxyphenyl)-3-(4-pyridin-4-yl-piperazin-1-yl)-2,3-dihydro-1H-indol-2-one], the Ki lay within 50 to 500 nM. `CCOc1ccccc1C1(N2CCN(c3ccncc3)CC2)C(=O)N(S(=O)(=O)c2ccc(OC(C)C)cc2)c2ccc(C#N)cc21` (stereo not shown) [Example 113, 5-Cyano-3-(2-ethoxyphenyl)-1-(4-isopropoxybenzenesulphonyl)-3-(4-pyridin-4-yl-piperazin-1-yl)-2,3-dihydro-1H-indol-2-one×trifluoroacetic acid] registered an inhibition constant Ki of 50 to 500 nM. Consider `CCOc1ccccc1C1(N2CCN(c3ccncc3)CC2)C(=O)N(S(=O)(=O)c2ccc(NC(C)=O)cc2)c2ccc(C#N)cc21` (stereo not shown) [Example 46, N-{4-[5-Cyano-3-(2-ethoxyphenyl)-2-oxo-3-(4-pyridin-4-yl-piperazin-1-yl)-2,3-dihydro-indole-1-sulphonyl]-phenyl}-acetamide], for which the inhibition constant (Ki) is 50 to 500 nM. Molecule `COc1ccc(S(=O)(=O)N2C(=O)C(c3ccccc3OC)(N3CCN(c4ccncc4)CC3)c3cc(Cl)ccc32)cc1` (stereo not shown) [Example 20, 5-Chloro-1-(4-methoxy-benzenesulphonyl)-3-(2-methoxyphenyl)-3-(4-pyridin-4-yl-piperazin-1-yl)-1,3-dihydro-indol-2-one] returned an inhibition constant Ki of 50 to 500 nM.

Broadly, the Ki is a dissociation constant, usually derived from enzyme kinetics or from competition with a known ligand.

The record behind these values is patent publication US8431567B2 (Abbott GmbH & Co. KG, priority 2006, dated 2013).
